Experiments:
[1] = system: white rats with experimental diabetes (streptozotocin); assay: Blood glucose in rats with streptozotocin-induced experimental diabetes; type: in vivo; conditions: diabetic rat, p.e. (subcutaneously), ± 8%
Description: Experimental diabetes is obtained (induced) in white rats of […], weighing 180 g., by way of intraperitoneally administered streptozotocin in the amount of 70 mg. for 1 kg. of weight. Synthesized polymers began to be introduced after the glucose level has exceeded 400 mg. %.
The procedure is conducted according to Example 12 with an equal amount of insulin administered subcutaneously in the form of solution.

rabbits [2] = assay: Glucose concentration in blood of rabbits after oral administration of insulin hydrogels; type: in vivo; conditions: rabbit, orally, ± 8%
Description: 0.1 g. of a pre-dried crosslinked polyacrylamide, modified with ovomucoid, is placed in 1 ml. of an aqueous solution of insulin (insulin activity is 25 U/mg.) with a concentration of 1.0 mg./ml. per hour at room temperature. During this time limit the polymer swells completely and is ready to use. The synthesized hydrogel in an amount corresponding to 5 units of insulin per kg. of animal weight is administered to rabbits orally, using a catheter. Blood samples are collected after 30, 60, 90 and 120 minutes.
The procedure is conducted according to Example 1 using various crosslinked modified polymers, various concentrations of the insulin solution, various quantities of the cross-linked modified polymers and various amounts of ovomucoid.
The procedure is conducted according to Example 1 but using a nonmodified polyacrylamide hydrogel.
Rabbits are treated orally with an insulin solution in an amount of 7 U/kg. of animal weight, a mixture of ovomucoid (2.5 mg./kg. weight) and insulin (8 U/kg) or a modified hydrogel (200 mg./kg. weight).

rabbits [3] = conditions: subcutaneous injection, 0.23 units of insulin, cited from earlier work

Q: For “14k: Control: porcine insulin solution administered subcutaneously to rats [Example 14k]”, which “Glucose Conc. in Blood” value ([1]; 0 min) is on record?
A: 400 Mg./100 ml.

Q: What about the “Glucose Conc. in Blood” value ([1]; 30 min after administration) of the same substance?
A: 160 Mg./100 ml.

Q: What about the “Glucose Conc. in Blood” value ([1]; 60 min after administration) of the same substance?
A: 145 Mg./100 ml.

Q: What about the “Glucose Conc. in Blood” value ([1]; 90 min after administration) of the same substance?
A: 150 Mg./100 ml.

Q: Which “Glucose Conc. in Blood” value (rabbits [2]; 0 min (start), 5 U insulin/kg in Ex. 1 (Ex. 15: 7 U/kg; Ex. 16: 8 U/kg + ovomucoid 2.5 mg/kg; Ex. 17: 200 mg/kg hydrogel)) does the source give for “15k: Control: porcine insulin solution given orally to rabbits, 7 U/kg [Example 15k]” here?
A: 152 Mg./100 ml.

Q: What about the “Glucose Conc. in Blood” value (rabbits [2]; 30 min after administration) of the same substance?
A: 151 Mg./100 ml.

Q: And the “Glucose Conc. in Blood” value (rabbits [2]; 60 min after administration)?
A: 150 Mg./100 ml.

Q: What about the “Glucose Conc. in Blood” value (rabbits [2]; 90 min after administration) of the same substance?
A: 160 Mg./100 ml.

Q: For insulin, which “glucose concentration in blood” value (rabbits [3]; 150 min. after the injection) is on record?
A: 120 mg./100 ml.

Q: And the “reduction of glucose concentration in blood” value (rabbits [3]; 150 min. after the injection)?
A: 74%

Q: What about the “glucose concentration in blood, initial” value (rabbits [3]; before) of the same substance?
A: 330 mg./100 ml.

From patent publication US5698515A, “Insulin-containing polymer composition for oral administration” (Institut Neftekhimicheskogo Sinteza Imeni A.V.Topchieva …, priority 1994, dated 1997)
